Experimental data published in patent US20230399312A1, “SUBSTITUTED PYRIMIDINES AND METHODS OF USE” (THERAVANCE BIOPHARMA R&D IP, LLC, priority 2020, published 2023).

Experiments:
[1] = biological target: T1, recombinant human ALK5 (TGF-βR1) protein (Homo sapiens, UniProt P36897); experiment: Biochemical ALK5 (TGF-βR1) assay to measure pKi (LANCE Ultra ULight kinase assay); conditions: apparent pKi, converted from pIC50 by Cheng-Prusoff
T1 construct: purchased Life Technologies PR9075A
T1 sequence (P36897 34-503): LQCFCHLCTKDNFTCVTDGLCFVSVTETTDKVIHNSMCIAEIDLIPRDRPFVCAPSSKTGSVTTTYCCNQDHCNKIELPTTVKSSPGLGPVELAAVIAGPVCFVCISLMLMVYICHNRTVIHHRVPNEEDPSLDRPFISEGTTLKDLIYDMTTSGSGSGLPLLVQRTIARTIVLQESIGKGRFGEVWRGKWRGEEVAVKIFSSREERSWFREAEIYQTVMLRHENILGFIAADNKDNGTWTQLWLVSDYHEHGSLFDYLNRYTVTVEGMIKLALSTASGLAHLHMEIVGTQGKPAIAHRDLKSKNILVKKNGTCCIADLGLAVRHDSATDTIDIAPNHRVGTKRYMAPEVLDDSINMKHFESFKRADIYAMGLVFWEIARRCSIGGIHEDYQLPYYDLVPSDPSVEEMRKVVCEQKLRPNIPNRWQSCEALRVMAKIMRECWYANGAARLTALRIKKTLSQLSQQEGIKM
In short: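 Cmpd + enzyme, 60 min RT; ATP from 125 μM (5×) stock, 60 min 37 °C; stop 12 mM EDTA/Eu anti-pThr1342 Topo2α Ab (pH 7.0 buffer); TR-FRET 665 nm. DMSO = max, SD-208 = min signal. 4-PL pIC50 → pKi (Cheng-Prusoff).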

[2] = system: TGF-β-stimulated SMAD3 phosphorylation in BEAS-2B cells; experiment: Cellular ALK5 potency assay, inhibition of TGF-β stimulated pSMAD3 formation in BEAS-2B cells; format: cell-based; conditions: Homo sapiens, pSMAD3, TGF-β 10 ng/mL, read-out: BEAS2B pIC50 (converted)
In short: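 Potency is expressed as pIC50, based on dose-dependent reduction of TGF-β-induced pSMAD3 AlphaLISA signal relative to stimulated cells without compound. BEAS-2B cells received compound 1 h before a 30 min, 10 ng/mL TGF-β challenge.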

SMILES | Ki [1] [nM] | IC50 [2] [nM]
Cc1cccc(-c2nc(C)cc(Nc3ccnc(Nc4ccc(N5CCNCC5)cc4)n3)n2)n1 [Compound 482, N4-[6-methyl-2-(6-methyl-2-pyridyl)pyrimidin-4-yl]-N2-(4-piperazin-1-ylphenyl)pyrimidine-2,4-diamine] | 0.0398 to 0.316 | 25.1 to 158
CNCCN1CCN(c2ccc(Nc3nccc(Nc4ccnc(-c5cccc(C)n5)n4)n3)cc2)CC1 [Compound 483, N2-[4-[4-[2-(methylamino)ethyl]piperazin-1-yl]phenyl]-N4-[2-(6-methyl-2-pyridyl)pyrimidin-4-yl]pyrimidine-2,4-diamine] | 0.0398 to 0.316 | 200 to 1260
Cc1cccc(-c2nccc(Nc3ccnc(Nc4ccc(CN5CCC(C(=O)O)CC5)cc4)n3)n2)n1 [Compound 484, 1-[[4-[[4-[[2-(6-methyl-2-pyridyl)pyrimidin-4-yl]amino]pyrimidin-2-yl]amino]phenyl]methyl] piperidine-4-carboxylic acid] | 0.0398 to 0.316 | 200 to 1260
Cc1cccc(-c2nccc(Nc3ccnc(Nc4ccc(Cc5ncco5)cc4)n3)n2)n1 [Compound 485, N4-[2-(6-methyl-2-pyridyl)pyrimidin-4-yl]-N2-[4-(oxazol-2-ylmethyl)phenyl]pyrimidine-2,4-diamine] | 0.398 to 3.16 | 25.1 to 158
Cc1cccc(-c2nccc(Nc3ccnc(Nc4ccc(CN5CCC[C@H](C(=O)O[C@@H]6CCN(C)C6)C5)cc4)n3)n2)n1 [Compound 486, [(3R)-1-methylpyrrolidin-3-yl] (3S)-1-[[4-[[4-[[2-(6-methyl-2-pyridyl)pyrimidin-4-yl]amino]pyrimidin-2-yl]amino]phenyl]methyl] piperidine-3-carboxylate] | 0.0398 to 0.316 | 25.1 to 158
Cc1cccc(-c2nccc(Nc3ccnc(Nc4ccc(Cl)c(CN5C6CCC5CNC6)c4)n3)n2)n1 [Compound 487, N2-[4-chloro-3-(3,8-diazabicyclo[3.2.1]octan-8-ylmethyl)phenyl]-N4-[2-(6-methyl-2-pyridyl)pyrimidin-4-yl]pyrimidine-2,4-diamine] | 0.0398 to 0.316 | 25.1 to 158
Cc1cccc(-c2nccc(Nc3ccnc(Nc4ccc(N5CCN[C@H](C(=O)O)C5)cc4)n3)n2)n1 [Compound 488, (2S)-4-[4-[[4-[[2-(6-methyl-2-pyridyl)pyrimidin-4-yl]amino]pyrimidin-2-yl]amino]phenyl]piperazine-2-carboxylic acid] | 0.0398 to 0.316 | 200 to 1260
Cc1cccc(-c2nccc(Nc3ccnc(Nc4ccc(CC5CCNC5)cc4)n3)n2)n1 (stereo not shown) [Compound 489, N4-(2-(6-methylpyridin-2-yl)pyrimidin-4-yl)-N2-(4-(pyrrolidin-3-ylmethyl)phenyl)pyrimidine-2,4-diamine] | 0.0398 to 0.316 | 25.1 to 158
Cc1cccc(-c2nccc(Nc3ccnc(Nc4ccc(NCC5(O)CNC5)cc4)n3)n2)n1 [Compound 490, 3-[[4-[[4-[[2-(6-methyl-2-pyridyl)pyrimidin-4-yl]amino]pyrimidin-2-yl]amino]anilino]methyl] azetidin-3-ol] | 0.0398 to 0.316 | 25.1 to 158
COC(=O)CC1CN(c2ccc(Nc3nccc(Nc4ccnc(-c5cccc(C)n5)n4)n3)cc2)CCN1 (stereo not shown) [Compound 491, methyl 2-[4-[4-[[4-[[2-(6-methyl-2-pyridyl)pyrimidin-4-yl]amino]pyrimidin-2-yl]amino]phenyl]piperazin-2-yl]acetate] | 0.0398 to 0.316 | 25.1 to 158
Cc1cccc(-c2nccc(Nc3ccnc(Nc4ccc5c(c4)CCCN5)n3)n2)n1 [Compound 492, N4-[2-(6-methyl-2-pyridyl)pyrimidin-4-yl]-N2-(1,2,3,4-tetrahydroquinolin-6-yl)pyrimidine-2,4-diamine] | 0.398 to 3.16 | 25.1 to 158
COC1(C)CN(Cc2ccc(Nc3nccc(Nc4ccnc(-c5cccc(C)n5)n4)n3)cc2)C1 [Compound 493, N2-[4-[(3-methoxy-3-methyl-azetidin-1-yl)methyl]phenyl]-N4-[2-(6-methyl-2-pyridyl)pyrimidin-4-yl]pyrimidine-2,4-diamine] | 0.0398 to 0.316 | 25.1 to 158
Cc1cccc(-c2nccc(Nc3ccnc(Nc4ccc(N5CCN(CC(C)C)CC5)cc4)n3)n2)n1 [Compound 494, N2-[4-(4-isobutylpiperazin-1-yl)phenyl]-N4-[2-(6-methyl-2-pyridyl)pyrimidin-4-yl]pyrimidine-2,4-diamine] | 0.0398 to 0.316 | 25.1 to 158
Cc1cccc(-c2nccc(Nc3ccnc(Nc4ccc(CN5CCCC(C(=O)NCC6CNC6)C5)cc4)n3)n2)n1 (stereo not shown) [Compound 495, N-(azetidin-3-ylmethyl)-1-[[4-[[4-[[2-(6-methyl-2-pyridyl)pyrimidin-4-yl]amino]pyrimidin-2-yl]amino]phenyl]methyl] piperidine-3-carboxamide] | 0.0398 to 0.316 | 25.1 to 158
Cc1cccc(-c2nccc(Nc3ccnc(Nc4ccc(N(C)C5CNC5)cc4)n3)n2)n1 [Compound 496, N2-[4-[azetidin-3-yl(methyl)amino]phenyl]-N4-[2-(6-methyl-2-pyridyl)pyrimidin-4-yl]pyrimidine-2,4-diamine] | 0.0398 to 0.316 | 25.1 to 158
Cc1cccc(-c2nccc(Nc3ccnc(Nc4cccc(N(C)C(=O)C5CCNCC5)c4)n3)n2)n1 [Compound 497, N-methyl-N-[3-[[4-[[2-(6-methyl-2-pyridyl)pyrimidin-4-yl]amino]pyrimidin-2-yl]amino]phenyl]piperidine-4-carboxamide] | 0.0398 to 0.316 | 200 to 1260
Cc1cccc(-c2nc(CC(=O)NCCO)cc(Nc3ccnc(Nc4ccc(N5CCNCC5)cc4)n3)n2)n1 [Compound 498, N-(2-hydroxyethyl)-2-[2-(6-methyl-2-pyridyl)-6-[[2-(4-piperazin-1-ylanilino)pyrimidin-4-yl]amino]pyrimidin-4-yl]acetamide] | 0.398 to 3.16 | 200 to 1260
Cc1cccc(-c2nccc(Nc3ccnc(Nc4ccc(N5CCNCC5)c(CC(=O)O[C@@H]5CCN(C)C5)c4)n3)n2)n1 [Compound 499, [(3R)-1-methylpyrrolidin-3-yl] 2-[5-[[4-[[2-(6-methyl-2-pyridyl)pyrimidin-4-yl]amino]pyrimidin-2-yl]amino]-2-piperazin-1-yl-phenyl]acetate] | 0.0398 to 0.316 | 200 to 1260
Cc1cccc(-c2nccc(Nc3ccnc(Nc4csc(N)c4)n3)n2)n1 [Compound 500, N2-(5-amino-3-thienyl)-N4-[2-(6-methyl-2-pyridyl)pyrimidin-4-yl]pyrimidine-2,4-diamine] | 0.398 to 3.16 | 25.1 to 158
Cc1cccc(-c2nccc(Nc3ccnc(Nc4ccc(CN5CC(N(C)C)C5)cc4)n3)n2)n1 [Compound 501, N2-[4-[[3-(dimethylamino)azetidin-1-yl]methyl]phenyl]-N4-[2-(6-methyl-2-pyridyl)pyrimidin-4-yl]pyrimidine-2,4-diamine] | 0.0398 to 0.316 | 25.1 to 158
Cc1cccc(-c2nccc(Nc3ccnc(Nc4ccc(N5CCOCC5)cc4F)n3)n2)n1 [Compound 502, N2-(2-fluoro-4-morpholino-phenyl)-N4-[2-(6-methyl-2-pyridyl)pyrimidin-4-yl]pyrimidine-2,4-diamine] | 3.98 to 31.6 | 25.1 to 158
CNCc1ccc(Nc2nccc(Nc3ccnc(-c4cccc(C)n4)n3)n2)cc1 [Compound 503, N2-[4-(methylaminomethyl)phenyl]-N4-[2-(6-methyl-2-pyridyl)pyrimidin-4-yl]pyrimidine-2,4-diamine] | ≤ 0.0316 | 25.1 to 158
Cc1cccc(-c2nccc(Nc3ccnc(Nc4csc(C(=O)O[C@@H]5CCN(C)C5)c4)n3)n2)n1 [Compound 504, [(3R)-1-methylpyrrolidin-3-yl] 4-[[4-[[2-(6-methyl-2-pyridyl)pyrimidin-4-yl]amino]pyrimidin-2-yl]amino]thiophene-2-carboxylate] | 0.0398 to 0.316 | 25.1 to 158
Cc1cccc(-c2nccc(Nc3ccnc(Nc4cccc(C(=O)N5CCNCC5)c4)n3)n2)n1 [Compound 505, [3-[[4-[[2-(6-methyl-2-pyridyl)pyrimidin-4-yl]amino]pyrimidin-2-yl]amino]phenyl]-piperazin-1-yl-methanone] | 0.398 to 3.16 | 25.1 to 158
Cc1cccc(-c2nccc(Nc3ccnc(Nc4ccc(C(=O)O[C@H]5CCN(C)C5)s4)n3)n2)n1 [Compound 507, [(3S)-1-methylpyrrolidin-3-yl] 5-[[4-[[2-(6-methyl-2-pyridyl)pyrimidin-4-yl]amino]pyrimidin-2-yl]amino]thiophene-2-carboxylate] | 0.0398 to 0.316 | 25.1 to 158
Cc1cccc(-c2nccc(Nc3ccnc(Nc4nc(CN5CCC[C@@H](C(=O)O[C@H]6CCN(C)C6)C5)cs4)n3)n2)n1 [Compound 508, (S)-1-methylpyrrolidin-3-yl (R)-1-((2-((4-((2-(6-methylpyridin-2-yl)pyrimidin-4-yl)amino)pyrimidin-2-yl)amino)thiazol-4-yl)methyl)piperidine-3-carboxylate] | 0.398 to 3.16 | 25.1 to 158
